Earlier results on 1 compound are cited in US20260258086A1 (priority 2021, published 2026).

For this data set the following is noted: in vivo; cited from earlier work.

Consider `CC[C@H](C)[C@@H]1NC(=O)CNC(=O)[C@@H]2Cc3c([nH]c4cc(O)ccc34)[S@+]([O-])CC(NC(=O)CNC1=O)C(=O)N[C@@H](CC(N)=O)C(=O)N1C[C@H](O)C[C@H]1C(=O)N[C@@H]([C@@H](C)[C@@H](O)CO)C(=O)N2` [α-amanitin], for which the toxicity is 0.05 to 0.1 mg/kg.
